US5384417A, “Heptitols” (priority 1994, dated 1995)

Experiments:
Format in all cases: biochemical
Neutral α-Mannosidase = molecular target: T1, Neutral α-Mannosidase (Homo sapiens, UniProt Q9NTJ4); experiment: inhibition of human liver neutral α-mannosidase; settings: for inhibition at 1000 µM: 1 mM inhibitor, read-out: % Inhibition of Glycosidase Activity, α-Mannosidase Neutral
T1 construct: Human liver glycosidases were assayed; from tissue; host or cells: human liver
T1 sequence (Q9NTJ4 1-1040): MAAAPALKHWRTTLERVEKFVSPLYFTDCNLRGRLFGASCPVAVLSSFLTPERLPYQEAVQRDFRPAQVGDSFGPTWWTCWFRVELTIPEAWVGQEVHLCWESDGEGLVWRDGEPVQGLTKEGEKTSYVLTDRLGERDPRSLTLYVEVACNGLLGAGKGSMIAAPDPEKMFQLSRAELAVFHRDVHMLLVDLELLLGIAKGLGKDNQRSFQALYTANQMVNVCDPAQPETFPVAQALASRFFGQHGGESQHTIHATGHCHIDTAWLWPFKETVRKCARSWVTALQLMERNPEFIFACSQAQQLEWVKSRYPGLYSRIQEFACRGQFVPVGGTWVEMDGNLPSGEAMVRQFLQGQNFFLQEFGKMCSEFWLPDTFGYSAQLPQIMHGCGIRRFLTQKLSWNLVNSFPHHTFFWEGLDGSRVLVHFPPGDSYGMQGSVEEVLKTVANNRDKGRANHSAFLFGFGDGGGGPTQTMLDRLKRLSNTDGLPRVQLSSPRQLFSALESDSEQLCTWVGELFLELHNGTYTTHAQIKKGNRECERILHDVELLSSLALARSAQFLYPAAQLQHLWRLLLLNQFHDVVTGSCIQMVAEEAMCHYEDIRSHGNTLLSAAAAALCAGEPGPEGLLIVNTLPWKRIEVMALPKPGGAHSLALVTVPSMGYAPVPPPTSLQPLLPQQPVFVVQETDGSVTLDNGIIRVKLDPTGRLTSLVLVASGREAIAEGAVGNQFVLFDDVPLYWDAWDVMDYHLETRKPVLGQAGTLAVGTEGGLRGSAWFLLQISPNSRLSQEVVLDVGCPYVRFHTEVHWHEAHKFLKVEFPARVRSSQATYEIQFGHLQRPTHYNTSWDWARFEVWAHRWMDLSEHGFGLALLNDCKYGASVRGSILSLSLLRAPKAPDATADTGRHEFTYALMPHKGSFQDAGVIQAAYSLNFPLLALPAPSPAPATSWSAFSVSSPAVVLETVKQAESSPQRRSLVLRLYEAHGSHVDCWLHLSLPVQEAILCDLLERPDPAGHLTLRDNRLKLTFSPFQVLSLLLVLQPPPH
Method: (§1) Human liver glycosidases were assayed in the absence and presence [1 mM] of each of the potential inhibitors, using the appropriate buffered 4-methylumbelliferyl glycosides as substrates, as previously described.^17 See Table I, below.

β-Hexosaminidase = experiment: inhibition of human liver β-hexosaminidase; settings: for % Inhibition of Glycosidase Activity, β-Hexosaminidase: 1 mM inhibitor; for inhibition of β-hexosaminidase (in words): 1 mM
Method: as §1

Golgi α-Mannosidase = molecular target: T2, Golgi α-Mannosidase (Homo sapiens, UniProt Q16706); experiment: inhibition of human liver Golgi α-mannosidase; settings: 1 mM inhibitor; read-out: % Inhibition of Glycosidase Activity, α-Mannosidase Golgi
T2 construct: Human liver glycosidases were assayed; from tissue; host or cells: human liver
T2 sequence (Q16706 1-1144): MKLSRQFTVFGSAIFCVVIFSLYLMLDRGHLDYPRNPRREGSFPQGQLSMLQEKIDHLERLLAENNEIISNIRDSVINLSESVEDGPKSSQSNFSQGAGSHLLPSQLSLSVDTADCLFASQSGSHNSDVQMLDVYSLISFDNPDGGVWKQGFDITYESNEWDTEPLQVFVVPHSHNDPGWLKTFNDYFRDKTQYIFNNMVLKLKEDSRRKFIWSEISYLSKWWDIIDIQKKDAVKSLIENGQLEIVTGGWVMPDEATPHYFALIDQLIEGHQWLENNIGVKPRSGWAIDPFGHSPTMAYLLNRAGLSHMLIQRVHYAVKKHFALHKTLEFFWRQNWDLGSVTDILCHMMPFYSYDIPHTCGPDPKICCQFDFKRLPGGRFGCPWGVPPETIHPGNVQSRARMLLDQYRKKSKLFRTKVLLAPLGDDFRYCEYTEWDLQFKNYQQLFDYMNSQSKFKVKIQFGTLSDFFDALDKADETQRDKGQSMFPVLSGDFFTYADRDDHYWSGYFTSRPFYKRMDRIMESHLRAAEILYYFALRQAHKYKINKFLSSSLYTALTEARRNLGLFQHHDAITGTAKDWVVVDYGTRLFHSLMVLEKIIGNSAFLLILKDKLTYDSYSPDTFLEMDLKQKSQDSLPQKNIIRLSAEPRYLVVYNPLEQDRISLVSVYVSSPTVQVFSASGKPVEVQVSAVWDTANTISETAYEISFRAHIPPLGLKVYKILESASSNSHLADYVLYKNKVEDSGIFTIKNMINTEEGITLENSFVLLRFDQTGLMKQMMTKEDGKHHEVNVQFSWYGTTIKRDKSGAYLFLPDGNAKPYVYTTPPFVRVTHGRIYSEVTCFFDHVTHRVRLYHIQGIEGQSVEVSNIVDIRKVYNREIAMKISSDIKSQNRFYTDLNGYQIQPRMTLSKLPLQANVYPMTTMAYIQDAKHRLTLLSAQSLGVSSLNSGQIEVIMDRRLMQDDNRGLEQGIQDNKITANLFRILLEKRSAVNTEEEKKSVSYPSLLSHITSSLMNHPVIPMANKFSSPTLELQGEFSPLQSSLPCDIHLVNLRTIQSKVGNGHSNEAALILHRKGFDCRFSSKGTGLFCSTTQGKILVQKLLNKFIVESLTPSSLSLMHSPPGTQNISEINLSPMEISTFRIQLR
Method: as §1

α-Fucosidase = molecular target: T3, α-Fucosidase (Homo sapiens, UniProt P04066); experiment: inhibition of human liver α-fucosidase; settings: for inhibition of α-fucosidase (in words): 1 mM; for inhibition at 1000 µM: 1 mM inhibitor, read-out: % Inhibition of Glycosidase Activity, α-Fucosidase
T3 construct: Human liver glycosidases were assayed; from tissue; host or cells: human liver
T3 sequence (P04066 32-466): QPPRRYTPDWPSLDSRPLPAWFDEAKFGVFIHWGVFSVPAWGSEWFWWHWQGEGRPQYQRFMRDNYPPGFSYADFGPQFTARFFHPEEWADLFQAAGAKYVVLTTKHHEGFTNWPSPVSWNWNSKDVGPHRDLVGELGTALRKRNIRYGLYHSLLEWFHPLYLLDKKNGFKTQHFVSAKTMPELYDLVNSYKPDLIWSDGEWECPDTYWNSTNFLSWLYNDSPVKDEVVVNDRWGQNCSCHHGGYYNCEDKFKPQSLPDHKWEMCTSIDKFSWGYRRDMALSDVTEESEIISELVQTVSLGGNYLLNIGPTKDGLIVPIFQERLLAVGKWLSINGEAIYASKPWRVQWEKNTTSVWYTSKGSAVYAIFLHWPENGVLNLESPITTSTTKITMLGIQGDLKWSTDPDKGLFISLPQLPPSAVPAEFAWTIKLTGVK
Method: as §1

| Structure (SMILES) | inhibition at 1000 µM (Neutral α-Mannosidase) | inhibition of neutral α-mannosidase (in words) (Neutral α-Mannosidase; compared with DIM (3)) | % Inhibition of Glycosidase Activity, β-Hexosaminidase (β-Hexosaminidase) | inhibition at 1000 µM (Golgi α-Mannosidase) | inhibition of α-fucosidase (in words) (α-Fucosidase) | inhibition at 1000 µM (α-Fucosidase) | inhibition of β-hexosaminidase (in words) (β-Hexosaminidase) | inhibition of α-fucosidase (in words) (α-Fucosidase; listed as α-(aminomethyl)-1-deoxy-mannofuranose (5)) |
| --- | --- | --- | --- | --- | --- | --- | --- | --- |
| OC[C@@H](O)[C@H]1N[C@H](CO)[C@@H](O)[C@H]1O [αHomoDIM (4), 2,5-dideoxy-2,5-imino-D-glycero-D-talo-heptitol] | 76% | decreases the inhibition of the lysosomal and neutral enzymes | 0% | 92% | much less potent | 27% | – | – |
| OC[C@@H](O)[C@H]1NC[C@@H](O)[C@H]1O [DIM (3)] | 89% | – | 28% | 96% | – | – | – | – |
| OC[C@H]1NC[C@@H](O)[C@@H](O)[C@@H]1O [DMJ (1), deoxymannojirimycin] | 30% | – | 55% | 45% | potent inhibition of α-fucosidase | – | moderate inhibition of β-hexosaminidase | – |
| OC[C@H]1N[C@H](CO)[C@@H](O)C(O)[C@@H]1O (some centres unmarked) [αHomoDMJ (2)] | 33% | – | 1% | 56% | decrease markedly the potent inhibition of α-fucosidase | 29% | abolish the moderate inhibition of β-hexosaminidase | – |
| NC[C@H]1O[C@H]([C@H](O)CO)[C@H](O)[C@@H]1O [Manhepamine (5), 1-amino-2,5-anhydro-1-deoxy-D-glycero-D-talo-heptitol] | 2% | – | 46% | – | moderate inhibition of α-fucosidase | 77% | weak inhibitory properties towards β-N-acetylhexosaminidase | moderate inhibitor of α-fucosidase |
